Measured values published in article PMC6216040, “Repurposing of an old drug: In vitro and in vivo efficacies of buparvaquone against Echinococcus multilocularis” (International Journal for Parasitology: Drugs and Drug …, 2018).
Where two headings read alike, the source gives them in different places.

Experiments:
[1] = system: E. multilocularis metacestodes; assay: PGI-assay: drug-induced damage on in vitro cultured metacestodes (Pathogen Box screening cascade and EC50); assay type: cell-based, Echinococcus multilocularis; conditions: for cytotoxicity at 10 µM: Echinococcus multilocularis; for cytotoxicity at 10 µM / PGI release, % of the Tx-100 control, 5d / PGI release, % of the Tx-100 control, 12d: singlets, 10 µM; for PGI release, % of Tx-100 control, average, 5d / PGI release, % of Tx-100 control, average, 12d: confirmatory screening at 10 µM in triplicates, values as % of Tx-100 control
[2] = system: E. multilocularis metacestodes; conditions: three weeks treatment; ref Jura et al., 1998; cited from earlier work

SMILES	PGI release, % of the Tx-100 control, 5d ([1]; 5 days of incubation) [%]	PGI release, % of the Tx-100 control, 12d ([1]; 12 days of incubation) [%]	other results
COC(=O)Nc1nc2ccc(C(=O)c3ccccc3)cc2[nH]1 [MMV003152, Mebendazole, reference compound]	–	–	cytotoxicity at 10 µM ([1]; 120 h, 5 days of incubation, read-out: PGI release, % of the Tx-100 control, 5d): 1.28%; cytotoxicity at 10 µM ([1]; 288 h, 12 days of incubation, read-out: PGI release, % of the Tx-100 control, 12d): 11.9%; concentration inhibiting parasite proliferation [2]: 1 µM
Nc1c2c(nc3sc4c(c13)CCCC4)CCCC2 [MMV676588]	-0.72	10.95	–
CNC(=O)CNc1nc(-c2ccccn2)nc2scc(-c3ccccc3)c12 [MMV1029203]	-5.65	6.41	–
Cc1ccc2c(c1C)NC(=O)C21NN=C(c2ccccc2)S1 (stereo not shown) [MMV019189]	4.07	-1.23	–
O=C(Nc1ccnc(-c2cccnc2)n1)c1cc(C(F)(F)F)cc(C(F)(F)F)c1 [MMV019838]	1.37	-0.96	–
NC(=O)c1cc(-c2ccsc2)ccc1OCCOc1ccccc1 [MMV687138]	-3.72	0.14	–
Cc1ccc(S(=O)(=O)N2CCN(C(=O)c3cc(-c4ccccc4)n[nH]3)CC2)cc1 [MMV019742]	0.16	0.57	–
O=C(Nc1nc(-c2ccccn2)cs1)C1CC1c1ccccc1F (stereo not shown) [MMV1028806]	-2.32	-0.32	–
Cc1nc(-c2ccccn2)nc(N2CCC(Cc3ccccc3)C2)c1Cl (stereo not shown) [MMV659004]	11.75	58.47	PGI release, % of Tx-100 control, average, 5d ([1]; 5 days of incubation): 2.44%; PGI release, % of Tx-100 control, average, 12d ([1]; 12 days of incubation): 11.08%
O=C(NC1CC1)c1ccc(N2CCC(Cc3ccccc3)CC2)nc1 [MMV024397]	0.75	37.30	PGI release, % of Tx-100 control, average, 5d ([1]; 5 days of incubation): 0.18%; PGI release, % of Tx-100 control, average, 12d ([1]; 12 days of incubation): -0.13%
CN(C(=O)c1cc2c(-c3cncnc3)cccc2[nH]1)c1ccccc1 [MMV024443]	-1.32	3.28	–
c1csc(-c2cnc3sc(NCC4CCOCC4)nn23)c1 [MMV010764]	-0.61	-4.41	–
COc1ccc(C2=NN(C3CCCCCC3)C(=O)C2(C)C)cc1OCCCCOc1ccc(-c2nn[nH]n2)cc1 [MMV690028]	2.30	6.47	–
c1ccc(Oc2ccc(-c3cc(C4CCOCC4)[nH]n3)cc2)cc1 [MMV687762]	-1.81	0.46	–
COc1cccc2c(C)nc(N=C(N)N)nc12 [MMV000907]	-2.91	1.72	–
COC(=O)c1cccc2oc(-c3cccc(OC)c3NC(=O)c3cc(-c4ccccc4)on3)nc12 [MMV676186]	1.00	13.03	–
CC(C)n1nc(-c2cc3c(Cl)cccc3[nH]2)c2c(N)ncnc21 [MMV688417]	-4.81	-2.43	–

SMILES	PGI release, % of the Tx-100 control, 5d ([1]; 5 days of incubation) [%]	PGI release, % of the Tx-100 control, 12d ([1]; 12 days of incubation) [%]	other results
CCC(C)NC(=O)c1ccc(NC(=O)C2(c3ccccc3)CCCC2)cc1 (stereo not shown) [MMV146306]	-1.42	-5.77	–
CC(C)(CN)c1nc(-c2ccc(Cl)c(O)c2)c(-c2ccnc(N)n2)[nH]1 [MMV030734]	-0.31	-0.25	–
FC(F)(F)c1ccc(N(c2cccnc2)C2CCN(c3ccc(C(F)(F)F)cn3)CC2)cc1 [MMV689243]	0.34	10.04	–
CO/C=C(/C(=O)OC)c1ccccc1Oc1cc(Oc2ccccc2C#N)ncn1 [MMV021057, Azoxystrobin]	-0.65	-0.77	–
COC(=O)c1c(NC(=O)c2c(F)c(F)c(F)c(F)c2F)sc2c1CCCCC2 [MMV461553]	3.92	19.16	–
Cc1ccc2oc(-c3cc(NC(=O)Cc4ccccc4)ccc3Cl)nc2c1 [MMV676509]	-0.17	0.19	–
CCOc1ccc(-c2nc(NC(=O)CS(=O)(=O)c3ccccc3)sc2C)cc1 [MMV007638]	-0.28	0.13	–
O=C1O[C@@H](COc2ccon2)CN1c1cc(F)c(C2=CCN(Cc3ccccc3)CC2)c(F)c1 [MMV687813]	-0.66	-1.17	–
c1ccc2c(c1)CN(CC1CC1)CC1(CCN(Cc3c[nH]c4cnccc34)CC1)O2 [MMV023183]	-0.64	-1.24	–
O=C1COCc2ccc(Br)cc2N1Cc1ccc(C(F)(F)F)cc1 [MMV032995]	0.37	1.79	–
O=C(Nc1nnc(-c2ccc(Cl)cc2)o1)c1cccc(C(F)(F)F)c1 [MMV102872]	32.35	28.26	PGI release, % of Tx-100 control, average, 5d ([1]; 5 days of incubation): -0.31%; PGI release, % of Tx-100 control, average, 12d ([1]; 12 days of incubation): -1.19%
COc1ccc(-c2onc(C(F)(F)F)c2-c2ccc(Cl)cc2)c(O)c1 [MMV688766]	7.61	28.52	PGI release, % of Tx-100 control, average, 5d ([1]; 5 days of incubation): 1.11%; PGI release, % of Tx-100 control, average, 12d ([1]; 12 days of incubation): 0.26%
FC(F)(F)c1cccc(-c2nc3c(NCc4ccncc4)nccc3[nH]2)c1 [MMV032967]	0.25	-2.81	–
NC(CC(=O)c1ccc(Cl)cc1Cl)C(Cl)(Cl)Cl (stereo not shown) [MMV676468]	-0.27	-0.82	–
CCCCN(CCCC)c1c(C#N)cc(S(=O)(=O)Nc2ccccc2)cc1C#N [MMV688467]	17.50	35.72	PGI release, % of Tx-100 control, average, 5d ([1]; 5 days of incubation): 4.92%; PGI release, % of Tx-100 control, average, 12d ([1]; 12 days of incubation): 11.29%
CS(=O)(=O)c1cccc(-c2cnc3[nH]cc(-c4ccc(CCC(=O)O)cc4)c3c2)c1 [MMV026020]	-2.92	-0.12	–
O=C(NCc1ccco1)N1CCN(Cc2ccc(Cl)s2)CC1 [MMV688555]	1.40	3.17	–
